Assay results as given in patent US20250162979A1, “P-DIPHENYL COMPOUND DERIVATIVE MIXTURE AND METHOD OF PRODUCING THE SAME” (HODOGAYA CHEMICAL CO., LTD., priority 2021, published 2025).

Experiment: Solubility in organic solvent, checked visually at room temperature
Type: physicochemical
Settings: room temperature (25±5° C.), stirred 3 to 5 minutes, visual check, % (w/w)

Solubility in THF (10 g tetrahydrofuran): 49.9%
Solubility in toluene (10 g toluene): 24.2%
Compound: Cc1ccc(N(c2ccccc2)c2ccc(-c3ccc(N(c4ccccc4)c4ccc(C)cc4)cc3)cc2)cc1 [A-1, 4,4′-bis(4-methyldiphenylamino)-p-diphenyl]
